Results from publication PMC10252594 (Cancers, 2023).
Values joined by “and” are separate entries in the source; they are usually repeats but may differ in a detail not shown here. Equal entries are not always repeated. Where two headings read alike, the source gives them in different places.

Columns and labels:
LAPC-4 cells = assay: LAPC-4 cell viability proliferation and combination index assays (MTS, 6 days); format: cell-based, human
Protocol: LAPC-4 cells (1 × 10^4 cells/well) were seeded in triplicate in 96-well plates in IMDM (Iscove’s modified Dulbecco’s medium) (90 μL) supplemented (v/v) with 5% fetal FBS, 1% L-glutamine, 1% insulin, and 1% penicillin/streptomycin. The cells were incubated at 37 °C in a 5% CO2 humidified atmosphere for 24 h. […] After 6 days of incubation, the cell proliferation was determined by adding 10 µL of MTS followed by incubation at 37 °C for 4 h. Plates were then analyzed at 490 nm using a Tecan M-200 microplate reader (Männedorf, Switzerland). Using GraphPad Prism 7 software, the IC50 values were calculated. The values represent the average of two independent experiments performed in triplicate. According to the Chou–Talalay method and using the following formula, the CI (combination) was calculated. CI=(D)1/(DX)1+(D)2/(DX)2
Denominators (DX)l and (DX)2 are the doses of individual drugs required to achieve a given effect level, and numerators (D)1 and (D)2 are the concentrations of each drug present in combination to trigger the same effect level. When the drugs interact additively, CI = 1, but a CI < 1 indicates a synergistic interaction, and a CI > 1 indicates an antagonistic effect.

LAPC-4 xenografts [1] = assay: Cholesterol determination in tumor, liver, plasma (kit, method A); format: in vivo, mice; conditions: 10 mg/kg PO, NS vs CTL
Protocol: A cholesterol quantification kit provided by Sigma-Aldrich (Catalog Number MAK043) was used following the manufacturer’s instructions to determine the concentration of total cholesterol, free cholesterol, and cholesteryl ester in samples. The cholesterol contents were measured in samples from two different protocols. […] Secondly, in tumor, liver, and plasma obtained at the end of the LAPC-4 xenograft experiment (control group and the group treated with RM-581 at 10 mg/kg/PO).

[2] = Dosage of RM-581 in tumors and plasma (LC-MS/MS); format: in vivo, mice; conditions: for RM-581 in Plasma / RM-581 in Tumor / concentration at 3 h: 3 h after last treatment; for concentration at 3 h / Kp at 3 h: nude, mouse; for Kp at 3 h: tumor/plasma, ng/g = ng/mL assumed, read-out: Concentration Index (Tumor/Plasma)
Protocol: The mice were weighed at the start and end of the protocol. Tumor area (mm^2) was calculated twice a week using two perpendicular diameters (L and W), which were recorded using a caliper, and the formula L/2 × W/2 × π. The area measured on the first day of treatment was fixed at 100%. At the end of the studies and 3 h after the last treatment, the mice were terminally anesthetized, and their final body weights were measured. Tumors, liver, kidney, and total prostate were collected from mice during necropsy, while blood was collected by cardiac puncture. Tissues and plasma were immediately frozen at −80 °C until analysis.

DU-145 = system: DU-145; set-up: method as in PMID 34681843; conditions: DU-145, AR negative, three days, MTS; cited from earlier work
[3] = Tolerated dose of RM-581 in mice (dose escalation); format: in vivo
Protocol: It is important to note that animal death is not an accepted endpoint for CCAC. RM-581 was first dissolved in DMSO, and PG was added to obtain a final 8% concentration of co-solvent DMSO. The injected volume was 0.1 mL, but the number of injections ranged from 1, 2, or 3 to obtain the expected dose. Each week for […] consecutive weeks, an increased dose (60, 120, 240, 360, 480, 600, or 720 mg/kg) of RM-581 was administered by gavage (PO), and the mice were weighed and observed for 7 days to notice any signs of toxicity. The protocol was applied to four groups (Gr) divided as follows: Gr-1: 5 female mice received the vehicle only; Gr-2: 5 male mice received the vehicle only; Gr-3: 5 female mice treated with RM-581; and Gr-4: 5 male mice treated with RM-581.

LAPC-4 xenografts [4] = assay: Cholesterol/lipid panel in plasma (method B, hospital laboratory); format: in vivo, mice
Protocol: Total cholesterol, triglycerides, cholesterol-HDL (high-density lipoproteins), cholesterol-LDL (low-density lipoproteins), cholesterol non-HDL, and the ratio of total cholesterol/cholesterol-HDL were determined in the plasma of mice treated PO with RM-581 (3, 10, and 30 mg/kg) or abiraterone acetate (60 mg/kg). Analyses were performed at the CHU de Québec/L’Enfant-Jésus (Medical Hospital Laboratory; Project N°: 9014625056) using a Cobas Lipid Panel from Roche.

22Rv1 = assay: PCa cell viability proliferation screening (MTS), 22Rv1; format: cell-based; conditions: Homo sapiens, 72 h, 22Rv1, AR positive, three days
Protocol: (§1) VCaP (4 × 10^4 cells/well) were seeded in 96-well plates in DMEM media supplemented with 10% fetal bovine serum (FBS), penicillin, streptomycin, and sodium pyruvate. 22Rv1 cells (2 × 10^3 cells/well) and LAPC-4 cells (6 × 10^3 cells/well) were seeded in 96-well plates in RPMI media supplemented with 10% FBS, penicillin, streptomycin, and sodium pyruvate. The cells were incubated at 37 °C in a 5% CO2 humidified atmosphere for 24 h before treatment with multiple concentrations of RM-581 dissolved in dimethyl sulfoxide (DMSO). The concentrations used were between 0.01 μM and 50 μM. Treatment lasted for 3 days for all the cell lines except VCaP cells, which were treated for 7 days due to slower proliferation rates. At the end of the assay, 20 μL of MTS (Cell Titer 96 Aqueous, Promega, Nepean, ON, Canada) were added to each well, and the mixture was incubated for 4 h at 37 °C. The plates were subsequently analyzed at 490 nm using a Tecan M-200 microplate reader (Männedorf, Switzerland).

PC-3 = system: PC-3; set-up: method as in PMID 34681843; conditions: PC-3, AR negative, three days, MTS; cited from earlier work
LAPC-4 = assay: PCa cell viability proliferation screening (MTS), LAPC-4; format: cell-based; conditions: Homo sapiens, LAPC4, 72 h, LAPC-4, AR positive, three days
Protocol: as §1

VCaP = assay: PCa cell viability proliferation screening (MTS), VCaP; format: cell-based; conditions: Homo sapiens, 168 h, AR positive, seven days
Protocol: as §1

Compound: C#C[C@]1(O)CC[C@H]2[C@@H]3CCc4cc(OC)c(N5CCN(C(=O)[C@@H]6CCCN6C(=O)c6ccc7ccccc7n6)CC5)cc4[C@H]3CC[C@@]21C [RM-581]
- IC50 (LAPC-4 cells; Homo sapiens, LAPC4, 144 h, LAPC-4, six days of treatment, read-out: IC50, single experiments (Figure 2A)): 450 nM
- IC50 (LAPC-4 cells; Homo sapiens, LAPC4, 144 h, LAPC-4, six days, slightly different culture conditions, read-out: IC50, single experiments (Figure 3)): 510 nM
- IC50 (LAPC-4 cells; Homo sapiens, LAPC4, 144 h, LAPC-4, six days, slightly different culture conditions, read-out: Mean IC50 (Figure 3)): 570 ± 140 nM
- IC50 (LAPC-4 cells; Homo sapiens, LAPC4, 144 h, LAPC-4, six days, single drugs and 1:1 combinations, read-out: IC50 (Figure 2B)): 560 nM
- IC50 (LAPC-4 cells; Homo sapiens, LAPC4, LAPC-4, read-out: IC50 in LAPC-4 cells, approximate summary value): ~500 nM
- IC50 (LAPC-4 cells; LAPC-4, six days of treatment, read-out: IC50, single experiments (Figure 2A)): 300 nM and 550 nM
- IC50 (LAPC-4 cells; LAPC-4, six days, slightly different culture conditions, read-out: IC50, single experiments (Figure 3)): 470 nM and 730 nM
- F-CHOL (free cholesterol), liver (LAPC-4 xenografts [1]): 2410 ± 10 (NS) µg/g
- F-CHOL (free cholesterol), plasma (LAPC-4 xenografts [1]): 403 ± 120 (NS) µg/mL
- F-CHOL (free cholesterol), tumor (LAPC-4 xenografts [1]): 3270 ± 236 (NS) µg/g
- T-CHOL (total cholesterol), liver (LAPC-4 xenografts [1]): 2440 ± 475 (NS) µg/g
- T-CHOL (total cholesterol), plasma (LAPC-4 xenografts [1]): 1820 ± 500 (NS) µg/mL
- T-CHOL (total cholesterol), tumor (LAPC-4 xenografts [1]): 4543 ± 2476 (NS) µg/g
- RM-581 in Plasma ([2]; 3 mg/kg PO): 15 ng/mL and 0.023 µM
- RM-581 in Tumor ([2]; 3 mg/kg PO): 50 ng/g and 0.077 µM
- RM-581 in Plasma ([2]; 10 mg/kg PO): 30 ng/mL and 0.046 µM
- RM-581 in Tumor ([2]; 10 mg/kg PO): 300 ng/g and 0.464 µM
- RM-581 in Plasma ([2]; 30 mg/kg PO): 171 ng/mL and 0.265 µM
- RM-581 in Tumor ([2]; 30 mg/kg PO): 940 ng/g and 1.465 µM
- concentration at 3 h ([2]; plasma, 30 mg/kg PO, read-out: RM-581 in Plasma): 171 ng/mL
- concentration at 3 h ([2]; plasma, PO, read-out: RM-581 in Plasma): 15 ng/mL
- Kp at 3 h ([2]; 3 mg/kg PO): 3.3
- Kp at 3 h ([2]; 10 mg/kg PO): 10
- Kp at 3 h ([2]; 30 mg/kg PO): 5.5
- concentration at 3 h ([2]; tumor, 30 mg/kg PO, read-out: RM-581 in Tumor): 940 ng/g
- concentration at 3 h ([2]; tumor, PO, read-out: RM-581 in Tumor): 50 ng/g
- IC50 (DU-145): 4.4 µM
- therapeutic index ([3]; assuming effective dose of 30 mg/kg): > 24
- signs of toxicity, dose escalation ([3]; normal male and female mice, 60, 120, 240, 360, 480, 600 and 720 mg/kg PO weekly): no signs of toxicity
- body weight, treated vs control groups ([3]; normal mice, dose escalation up to 720 mg/kg PO, 7 weeks): no significant body weight difference
- T-CHOL (total cholesterol), plasma (LAPC-4 xenografts [4]; 10 mg/kg PO, NS vs CTL): 1182 ± 338 (NS) µg/mL
- plasma triglycerides, cholesterol-HDL, -LDL, non-HDL, ratio total cholesterol/cholesterol-HDL vs control (LAPC-4 xenografts [4]; Figure S3): no significant difference
- IC50 (22Rv1): 1380 nM
- IC50 (PC-3): 1200 nM
- IC50 (LAPC-4): 560 nM
- IC50 (VCaP): 5.78 µM
